Laboratory results as given in patent US20180177219A1, “FAST-DISSOLVING CO-CRYSTALLINE LACTOSE” (NESTEC S.A., priority 2015, published 2018).

How the values were obtained:
Format in all cases: physicochemical
[1] = Dissolution kinetics by online refractometry (normalized refractive index), stirred; conditions: particle size 60-90 μm; for amount of solid dissolved in water within 20 seconds: 60 ml, stirring 500 rpm, ambient temperature (20° C.)
Method: Dissolution kinetics were measured by online-refractometry in water over a time period of 0 to 100 seconds while stirring at 500 rpm at ambient temperature (20° C.).
The dissolution kinetics of 2 g of lactose.CaCl2.7 H2O co-crystals in water (♦) in comparison to 1.24 g of pure lactose monohydrate in water (▪), 1.24 g of lactose monohydrate in 0.52 g calcium chloride solution (▴) and a physical mixture of 1.24 g of lactose monohydrate and 0.52 g of calcium chloride dihydrate in water (X) were measured by refractometry at room temperature over a time period of 0 to 100 seconds while stirring the solution.

[2] = Dissolution of an individual crystal filmed under a microscope, no agitation; conditions: room temperature; for time to complete dissolution of an individual crystal: crystals comparable in size and morphology
Method: The dissolution of the individual crystals was filmed under a microscope using a high-resolution camera and film-stills of the progressing dissolution were analyzed (area of remaining solid material) until complete dissolution was achieved.
Dissolution kinetics were measured over a time period of 0 to 36 seconds.
The dissolution kinetics of an individual α-lactose.CaCl2.7 H2O co-crystal (▪) in comparison to α-lactose monohydrate (▴) in water were determined. Dissolution kinetics were measured over a time period of 0 to 36 seconds at room temperature without stirring.

[3] = Dynamic vapor sorption (moisture tolerance); conditions: 25° C., 120 hours, relative humidity augmented stepwise
Method: The physical mixture contains the same molar quantities of lactose and calcium chloride as compared to the co-crystalline material. The straight (horizontal) line corresponds to an uptake of five equivalents of water. dm: mass gain in percent; RH: relative humidity in percent.
Dynamic vapor sorption experiments were performed for lactose.calcium salt co-crystals in comparison to a physical mixture of lactose monohydrate and calcium chloride dihydrate. The physical mixture contains the same molar quantities of lactose and calcium chloride as compared to the co-crystalline material.
Measurements were conducted over 120 hours at a temperature of 25° C. and relative humidity was augmented stepwise until the samples fully liquefied.

O.OC[C@H]1O[C@@H](O[C@H]2[C@H](O)[C@@H](O)C(O)O[C@@H]2CO)[C@H](O)[C@@H](O)[C@H]1O (stereo partly drawn) [lactose monohydrate, reference compound]
amount of solid dissolved in calcium chloride solution within 20 seconds ([1]; 1.24 g in 0.52 g calcium chloride solution, stirring, room temperature): about 30%
amount of solid dissolved in water within 20 seconds [1]: about 20%
time for complete dissolution relative to lactose.CaCl2.7 H2O co-crystal (times as long) ([2]; individual crystal, liquid phase not agitated): roughly seven
time to complete dissolution of an individual crystal ([2]; water, without stirring): about 36 seconds

O.O.O.O.O.O.O.OC[C@H]1O[C@@H](O[C@H]2[C@H](O)[C@@H](O)C(O)O[C@@H]2CO)[C@H](O)[C@@H](O)[C@H]1O.[Ca+2].[Cl-].[Cl-] (stereo partly drawn) [lactose.CaCl2.7 H2O co-crystals, lactose.calcium chloride.7 H2O]
amount of solid dissolved in water within 20 seconds [1]: about 85%
dissolution speed relative to lactose monohydrate (times faster) ([2]; individual crystal, water, without stirring): 14 to 15 times
time to complete dissolution of an individual crystal ([2]; water, without stirring): about 2.5 seconds
moisture absorption behaviour [3]: gradually continued to absorb moisture in parallel with augmentation of relative humidity
moisture tolerance compared to physical mixture of lactose monohydrate and calcium chloride dihydrate [3]: improved moisture tolerance
